# Results published in patent publication US12251447B2, “Combined formulation comprising four linked cytotoxic T lymphocyte (CTL) epitopes and a PD-1 pathway inhibitor and methods of use thereof to treat cancer” (Taiho Pharmaceutical Co., Ltd., priority 2018, dated 2025).
# Ends that are not written are not given here.
# What was measured:
# Assay type in all cases: in vivo, mouse
# [1] = Example 6: rate of change in body weight; details: 18 days after cell transplantation vs Day 0
# Protocol: (§1) Body weight was measured using an electronic balance for animals, and a rate of change in body weight (BWC) was calculated from the body weight measured on Day 0 (the day of grouping, BW0) and the body weight on 18 days after cell transplantation (BW) according to the following formula. Rate of change in body weight BWC (%)=(BW−BW0)/BW0×100
# 9-week-old B2 m^tm2(HLA-A24/H-2Db/B2M)Tai mice were randomly assigned to groups each involving 15 animals. The day of grouping was defined as Day 0.
# This study was conducted in the same way as in Example 4 except that TPV07 or TPV08 was used instead of TPV06 as a peptide having 4 linked epitopes. TPV07 and TPV08, as in TPV06, were each prepared into 6 mg/mL using distilled water (Otsuka Pharmaceutical Factory Inc.) and then mixed with the equivalent amount of Montanide™ ISA 51 VG (SEPPIC) to prepare an emulsion, which was administered.
# [2] = Example 4: rate of change in body weight; details: body weight 18 days after cell transplantation vs Day 0
# Protocol: 8-week-old B2m^tm2(HLA-A24/H-2Db/B2M)Tai mice were randomly assigned to groups each involving 15 animals. The day of grouping was defined as Day 0. A 6 mg/mL peptide solution was prepared by dissolving a peptide having 4 linked epitopes TPV06 in distilled water (Otsuka Pharmaceutical Factory Inc.), and filled into the B Braun Injekt syringe (B. Braun Melsungen AG). After the equivalent amount of Montanide™ ISA 51 VG (SEPPIC) was filled into another syringe, these syringes were connected to each other via a connector, and the peptide solution was thoroughly mixed with Montanide™ ISA 51 VG to prepare an emulsion. Also, an emulsion of distilled water mixed with the equivalent amount of Montanide™ ISA 51 VG was prepared as a vehicle control. Each of these emulsions was subcutaneously administered weekly in amounts of 100 μL each in the vicinity of base of tail of each B2m^tm2(HLA-A24/H-2Db/B2M)Tai mouse, and administrations were carried out three times in total (Days 0, 7, and 14). […]
# Body weight was measured using an electronic balance for animals, and a rate of change in body weight (BWC) was calculated from the body weight measured on Day 0 (the day of grouping, BW0) and the body weight on 18 days after cell transplantation (BW) according to the following formula. […]
# [3] = Example 5: rate of change in body weight; details: 18 days after cell transplantation vs Day 0
# Protocol: as §1
# 9-week-old B2m^tm2(HLA-A24/H-2Db/B2M)Tai mice were randomly assigned to groups each involving 15 animals. The day of grouping was defined as Day 0.
# This study was conducted in the same way as in Example 4 except that an anti-mouse PD-L1 antibody was used instead of the anti-mouse PD-1 antibody. GoInVivo™ Purified anti-mouse CD274 (B7-H1, PD-L1) (Clone: 10F.9G2, BioLegend, Inc.) was prepared as an anti-mouse PD-L1 antibody (anti-mPD-L1 Ab) into 1 mg/mL using D-PBS (FUJIFILM Wako Pure Chemical Corp.) immediately before administration. One week after final administration of the emulsions (Day 21), the anti-mouse PD-L1 antibody was intraperitoneally administered at 200 μg/body.
Sequence,BWC (%) change in body weight [1] [%],BWC (%) rate of change in body weight [2] [%],BWC (%) change in body weight [3] [%]
"DYSARWNEIRRQIRPIFSNRRRVYDYNCHVDLRRASLDSDPWV [TPV07, PEP5-RR-PEP9-RR-PEP6-RR-PEP2]",18.9,–,–
"DYSARWNEIRRQIRPIFSNRRRVYDYNCHVDLRRILEQSGEWWK [TPV08, PEP5-RR-PEP9-RR-PEP6-RR-PEP10]",21.7,–,–
"DYSARWNEIRRQIRPIFSNRRRVYDYNCHVDLRRLLQAEAPRL [TPV06, PEP5-RR-PEP9-RR-PEP6-RR-PEP4]",–,27.0,21.9
